Each structure is given as a SMILES string.

The target in assay [1] is T1, CDK4/cyclin D3 (Homo sapiens, UniProt P11802).
T1 construct: made in house; host or cells: insect cells (baculovirus co-infection)
In words: Inhibition of CDK4/Cyclin D retinoblastoma kinase activity. It counts as biochemical. To be noted: apparent Ki, Rb fragment substrate. Summed up:
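Human CDK4 with truncated cyclin D3 (1-264) from baculovirus-infected insect cells, 5 nM, phosphorylating His-tagged Rb fragment (386-928) with 25 μM [32P/33P]ATP in pH 7.4 HEPES/MgCl2, 2% DMSO, 30° C., 20 min (60 min for tight binders). Filter capture, phosphorimager; apparent Ki from competitive or tight-binding competitive fits.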

The target of assay [2] is T2, CDK2/cyclin A (Homo sapiens, UniProt P24941).
T2 construct: made in house; host or cells: CDK2: insect cells (baculovirus); cyclin A: E. coli, then limited proteolysis
The assay is described as follows: Inhibition of CDK2/Cyclin A retinoblastoma kinase activity. To be noted: apparent Ki, Rb fragment substrate. It counts as biochemical. On the procedure: Cyclin-dependent kinase activity was measured by quantifying the enzyme-catalyzed, time-dependent incorporation of radioactive phosphate from [^32P]ATP or [^33P]ATP into a protein substrate. Unless noted otherwise, assays were performed in 96-well plates in a total volume of 50 μL, in the presence of 10 mM HEPES (N-[2-hydroxyethyl]piperazine-N′-[2-ethanesulfonic acid]) (pH 7.4), 10 mM MgCl2, 25 μM adenosine triphosphate (ATP), 1 mg/mL ovalbumin, 5 μg/mL leupeptin, 1 mM dithiothreitol, 10 mM β-glycerophosphate, 0.1 mM sodium vanadate, 1 mM sodium fluoride, 2.5 mM ethylene glycol-bis(β-aminoethyl ether)-N,N,N′N′-tetraacetic acid (EGTA), 2% (v/v) dimethylsulfoxide, and 0.03-0.4 μCi [^32/33P]ATP per reaction. Reactions were initiated with enzyme, incubated at 30° C., and terminated after 20 minutes by the addition of ethylenediaminetetraacetic acid (EDTA) to 250 mM. The phosphorylated substrate was then captured on a nitrocellulose or phosphocellulose membrane using a 96-well filtration manifold, and unincorporated radioactivity was removed by repeated washing with 0.85% phosphoric acid. Radioactivity was quantified by exposing the dried membranes to a phosphorimager.
Inhibition was measured relative to control wells that contained all reaction components including 2% (v/v) DMSO but no compound, after subtraction of background radioactivity measured in the absence of enzyme. Apparent Ki values of discrete compounds were measured by assaying enzyme activity in the presence of different inhibitor compound concentrations and subtracting the background radioactivity measured in the absence of enzyme. The kinetic parameters (kcat, Km for ATP) were measured for each enzyme under the usual assay conditions by determining the dependence of initial rates on ATP concentration. Inhibition data were fit to an equation for competitive inhibition using Kaleidagraph (Synergy Software), or were fit to an equation for competitive tight-binding inhibition using the software KineTic (BioKin, Ltd.).
CDK2 was purified using published methodology (Rosenblatt et al., J. Mol. Biol., 230, 1317-1319 (1993)) from insect cells that had been infected with a baculovirus expression vector. Cyclin A was purified from E. coli cells expressing full-length recombinant cyclin A, and a truncated cyclin A construct was generated by limited proteolysis and purified as described previously (Jeffrey et al., Nature, 376, 313-320 (1995)). A complex of CDK2 and proteolyzed cyclin A was prepared and purified by gel filtration. The substrate for this assay was the same Rb substrate fragment used for the CDK4 assays, and the methodology of the CDK2/delta cyclin A and the CDK4/delta cyclin D3 assays was essentially the same, except that CDK2 was present at 10 nM or 19 nM. The duration of the assay was 60 or 75 minutes, during which the time-dependence of product formation was linear and initial rate conditions were met.

Assay [3] has as its system HCT-116 cells. The assay is described as follows: Inhibition of cell growth (MTT tetrazolium salt assay). To be noted: Homo sapiens; for IC50: read-out: HCT116 IC50; for IC90: read-out: HCT116 IC90. It counts as cell-based. On the procedure:
Inhibition of cell growth was measured using the tetrazolium salt assay, which is based on the ability of viable cells to reduce 3-(4,5-dimethylthiazol-2-yl)-2,5-[2H]-diphenyltetrazolium bromide (MTT) to formazan (Mosmann, J. Immunol. Meth., 65, 55-63 (1983)). The water-insoluble purple formazan product was then detected spectrophotometrically. HCT-116 cells were grown in 96-well plates. Cells were plated in the appropriate medium at a volume of 135 μl/well in either McCoy's 5A Medium. Plates were incubated for four hours before addition of inhibitor compounds. Different concentrations of inhibitor compounds were added in 0.5% (v/v) dimethylsulfoxide (15 μL/well), and cells were incubated at 37° C. (5% CO2) for four to six days (depending on cell type). At the end of the incubation, MTT was added to a final concentration of 0.2 mg/mL, and cells were incubated for 4 hours more at 37° C. After centrifugation of the plates and removal of medium, the absorbance of the formazan (solubilized in dimethylsulfoxide) was measured at 540 nm. […] All results were compared to control cells treated only with 0.5% (v/v) dimethylsulfoxide.

T1 sequence (P11802 whole entry): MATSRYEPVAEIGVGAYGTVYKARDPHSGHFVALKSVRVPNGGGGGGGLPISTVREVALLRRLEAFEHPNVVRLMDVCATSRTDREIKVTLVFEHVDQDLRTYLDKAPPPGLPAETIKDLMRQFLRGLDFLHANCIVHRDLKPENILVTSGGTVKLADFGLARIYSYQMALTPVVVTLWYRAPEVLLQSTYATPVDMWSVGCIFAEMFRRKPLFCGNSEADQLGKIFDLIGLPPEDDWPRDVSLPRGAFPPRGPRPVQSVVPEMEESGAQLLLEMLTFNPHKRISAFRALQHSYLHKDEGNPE
T1 sequence (P30281 1-264 partner limits assumed): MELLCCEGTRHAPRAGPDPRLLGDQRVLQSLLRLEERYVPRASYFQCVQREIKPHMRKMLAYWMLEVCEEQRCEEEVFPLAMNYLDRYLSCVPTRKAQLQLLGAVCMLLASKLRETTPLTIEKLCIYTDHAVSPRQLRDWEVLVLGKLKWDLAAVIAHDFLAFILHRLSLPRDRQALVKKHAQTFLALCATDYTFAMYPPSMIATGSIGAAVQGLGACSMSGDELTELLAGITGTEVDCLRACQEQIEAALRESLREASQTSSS

Turning to `Nc1nc(Nc2ccc(S(=O)(=O)NCCCCCO)cc2)sc1C(=O)c1c(F)cccc1F` [A(28), 4-[4-Amino-5-(2,6-difluoro-benzoyl)-thiazol-2-ylamino]-N-(5-hydroxy-pentyl)-benzenesulfonamide], in assay [1], the Ki amounted to 12 nM. Besides, the Ki in assay [2] is 2.6 nM. In assay [3], the IC50 worked out at 1200 nM and the IC90 stood at 2800 nM.
Take `Cc1ccc(CNS(=O)(=O)c2ccc(Nc3nc(N)c(C(=O)c4c(F)cccc4F)s3)cc2)s1` [A(29), 4-[4-Amino-5-(2,6-difluoro-benzoyl)-thiazol-2-ylamino]-N-(5-methyl-thiophen-2-ylmethyl)-benzenesulfonamide]: the Ki in assay [1] is 15 nM; in assay [2] it was under 5 nM. In addition, the half-inhibitory concentration (IC50) in assay [3] worked out at 190 nM. In assay [3], the IC90 was determined as 560 nM.
For `Cc1ccc(C(C)NS(=O)(=O)c2ccc(Nc3nc(N)c(C(=O)c4c(F)cccc4F)s3)cc2)o1` (stereo not shown) [A(30), 4-[4-Amino-5-(2,6-difluoro-benzoyl)-thiazol-2-ylamino]-N-[1-(5-methyl-furan-2-yl)-ethyl]-benzenesulfonamide] the same measures were 9 nM, under 5 nM, 310 nM and 640 nM.
For `Nc1nc(Nc2ccc(S(=O)(=O)NCCCc3ccccc3)cc2)sc1C(=O)c1c(F)cccc1F` [A(32), 4-[4-Amino-5-(2,6-difluoro-benzoyl)-thiazol-2-ylamino]-N-(3-phenyl-propyl)-benzenesulfonamide] the same measures were 16 nM, under 5 nM, 140 nM and 380 nM.
Take `Nc1nc(Nc2ccc(S(=O)(=O)NCc3cc4ccccc4o3)cc2)sc1C(=O)c1c(F)cccc1F` [A(34), 4-[4-Amino-5-(2,6-difluoro-benzoyl)-thiazol-2-ylamino]-N-benzofuran-2-ylmethyl-benzenesulfonamide]: the Ki in assay [1] was found to be 5.1 nM. Further, the Ki in assay [2] was under 10 nM. Also, in assay [3], the IC50 was 780 nM and the IC90 is 1800 nM.
Regarding `CC(C)CCCCNS(=O)(=O)c1ccc(Nc2nc(N)c(C(=O)c3c(F)cccc3F)s2)cc1` [A(37), 4-[4-Amino-5-(2,6-difluoro-benzoyl)-thiazol-2-ylamino]-N-(5-methyl-hexyl)-benzenesulfonamide], the Ki in assay [1] was 35 nM; in assay [2], 4.9 nM. For the same compound, the IC50 in assay [3] amounted to 1200 nM. Also, the IC90 in assay [3] is 3800 nM.
Take `Cc1ccc(CNS(=O)(=O)c2ccc(Nc3nc(N)c(C(=O)c4c(F)cc(F)cc4F)s3)cc2)o1` [B(1), 4-[4-Amino-5-(2,4,6-trifluoro-benzoyl)-thiazol-2-ylamino]-N-(5-methyl-furan-2-ylmethyl)-benzenesulfonamide]: the Ki in assay [1] was 100 nM. Moreover, in assay [2], the Ki is under 10 nM. Also, in assay [3], the IC50 is 900 nM and the concentration for an effect of 90% (IC90) amounted to 2000 nM.
Consider `CC(CCCC(C)(C)O)NS(=O)(=O)c1ccc(Nc2nc(N)c(C(=O)c3c(F)cc(F)cc3F)s2)cc1` (stereo not shown) [B(2), 4-[4-Amino-5-(2,4,6-trifluoro-benzoyl)-thiazol-2-ylamino]-N-(5-hydroxy-1,5-dimethyl-hexyl)-benzenesulfonamide], for which the Ki in assay [1] was 6.2 nM. In addition, the Ki in assay [2] was 1.3 nM. Besides, in assay [3], the IC50 is 980 nM and the IC90 amounted to 2300 nM.
Turning to `Nc1nc(Nc2ccc(S(=O)(=O)NC3CCNCC3)cc2)sc1C(=O)c1c(F)cccc1F` [BB(1), 4-[4-Amino-5-(2,6-difluoro-benzoyl)-thiazol-2-ylamino]-N-piperidin-4-yl-benzenesulfonamide], the Ki in assay [1] worked out at 13 nM. Further, the Ki in assay [2] is 13 nM. In assay [3], the IC50 came to 22000 nM and the IC90 is over 50000 nM.
On to `Nc1nc(Nc2ccc(S(=O)(=O)Nc3ccccc3)cc2)sc1C(=O)c1c(F)cccc1F` [C(1), 4-[4-Amino-5-(2,6-difluoro-benzoyl)-thiazol-2-ylamino]-N-phenyl-benzenesulfonamide], for which the Ki turned out to be 76 nM in assay [1] and 17 nM in assay [2]. In addition, in assay [3], the half-maximal inhibitory concentration (IC50) came to 870 nM. For the same compound, the IC90 in assay [3] came to 1900 nM.

(Values after patent US20040176431A1, “Antiproliferative 2-(sulfo-phenyl)-aminothiazole derivatives and pharmaceutical compositions, and methods for their use” (Pfizer, Inc., priority 2003, published 2004).)
